One data set has as its system P. falciparum Dd2. The data set is described as follows: 3-day SYBR Green I GIA, multidrug-resistant strain Dd2. Particulars: Plasmodium falciparum, 72 h; 3-day SYBR Green I GIA, multidrug-resistant strain Dd2; read-out: Antiplasmodial activity EC50, Dd2. It counts as cell-based, Plasmodium falciparum. In outline: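 Sorbitol-synchronized ring-stage parasites at 1% parasitemia and 2% hematocrit, cultured 72 h with compounds at 1% DMSO final. Growth read by SYBR Green I staining. EC50 from curve fitting.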

A short description of data set [1]: In vitro cytotoxicity analysis (CellTiter-Glo), 293T. As to conditions: human, 293T cells, Cytotoxicity EC50, 293T, 72 h, CellTiter-Glo. The procedure:
(§1) In all, 1% DMSO was used as a negative control. The inhibition of each drug was normalized to that of the DMSO control. EC50 was calculated by GraphPad Prism. Three independent assays with two technical replicates each time were conducted in this experiment.
(Cellular ATP, detected with luciferase, serves as a proxy for viable cell number.)

In the next data set the test system is 293T cells. The description is as above. Here is the method:
as §1

In data set [2] the test system is P. falciparum isolate 6218. The data set is described as follows: 3-day SYBR Green I GIA, field isolate 6218. It counts as cell-based. Particulars: Plasmodium falciparum; artemisinin- and piperaquine-resistant isolate; read-out: Resistant isolates EC50, 6218. Here is the method: (§2) A 3-day SYBR Green I inhibition EC50 assay was performed as described previously. Briefly, highly synchronized ring-stage parasites by 5% sorbitol (1% parasitemia and 2% hematocrit) were incubated in a 96-well plate with compounds in a total volume of 200 μL. […] The parasites were cultured for 72 h before SYBR Green I staining as described above. The EC50 was calculated by GraphPad Prism. DHA was used as a positive control, and the final concentration of DMSO was 1%.

In data set [3] the test system is P. falciparum isolate 6320. The data set is described as follows: 3-day SYBR Green I GIA, field isolate 6320. Particulars: Plasmodium falciparum; artemisinin- and piperaquine-resistant isolate; read-out: Resistant isolates EC50, 6320. It is filed as cell-based. The procedure:
as §2

Data set [4] concerns P. falciparum 3D7. The data set is described as follows: Ring-stage survival assay (RSA), sensitive strain 3D7. As to conditions: 700 nM. It is filed as cell-based, Plasmodium falciparum.
Data set [5] in a line: Liver microsome metabolism assay, mouse. It counts as in vitro ADME. As to conditions: for half-life at 1 µM: mouse, liver microsomes. The procedure:
(§3) Liver microsomes (0.5 mg/mL) were purchased from Corning. Ketanserin was selected as a positive control. The tested compounds were first dissolved in DMSO to a concentration of 10 mM and then diluted to 0.5 mM with acetonitrile. Liver microsome buffer was used to dilute the compounds to a working concentration of 1.5 µM, 30 µL of which was mixed with 15 µL of 6 mM NADPH at 37 °C. At 0, 5, 15, 30, and 45 min after incubation, 135 µL of acetonitrile was added to quench the reaction. The mixture was shaken on a vortex mixer (IKA, MTS 2/4) for 10 min at 600 rpm/min and then centrifuged at 5594× g for 15 min (Thermo Multifuge×3R). The supernatant was diluted 1:1 into distilled water, and analyzed by LC-MS/MS.
(In general: Liver microsomes are vesicles of endoplasmic reticulum, rich in cytochrome P450 enzymes.)

Data set [6] can be described thus: Liver microsome metabolism assay, rat. Particulars: rat liver microsomes. It is filed as in vitro ADME. Here is the method: as §3
For a further data set, the system named is 3D7^HDAC1-TY1. The data set is described as follows: Sensitivity of transgenic parasites to JX21108, 3D7^HDAC1-TY1. It is filed as cell-based. As to conditions: Plasmodium falciparum, 3D7, 4 h, read-out: EC50 for 3D7^HDAC1-TY1. The procedure:
Highly synchronized schizont-stage parasites were prepared and treated as described above, with adjustments. […] After washing, parasites were cultured in new CM for another 68 h. Parasite growth was monitored by SYBR Green I staining, as described above. The EC50 was calculated by GraphPad Prism.

In another data set the target is T1, hSirt2 (Homo sapiens, UniProt Q8IXJ6).
T1 construct: purchased BPS Bioscience 50013
T1 sequence (Q8IXJ6 whole entry): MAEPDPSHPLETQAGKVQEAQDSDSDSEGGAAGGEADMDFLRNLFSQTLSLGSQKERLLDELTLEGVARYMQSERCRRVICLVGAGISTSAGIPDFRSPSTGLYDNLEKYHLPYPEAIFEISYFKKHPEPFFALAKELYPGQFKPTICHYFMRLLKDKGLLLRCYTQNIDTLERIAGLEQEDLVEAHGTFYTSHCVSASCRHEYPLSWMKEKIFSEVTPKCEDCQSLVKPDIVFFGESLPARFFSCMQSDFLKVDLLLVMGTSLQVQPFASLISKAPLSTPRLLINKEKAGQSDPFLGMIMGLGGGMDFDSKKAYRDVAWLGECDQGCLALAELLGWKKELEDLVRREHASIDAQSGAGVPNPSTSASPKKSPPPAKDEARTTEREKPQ
The data set is described as follows: Human HDAC inhibition assay, hSirt2. As to conditions: performed only once; read-out: Inhibitory Activity IC50, hSirt2. It counts as biochemical. The procedure: SAHA and suramin were used as positive controls. The tested compounds were dissolved into 20 mM stock in 100% DMSO. […] Ten microliters of trypsin and Ac-peptide substrate/Tris buffer solution were added to start the reaction, followed by a 1-h incubation at room temperature for HDACs 1–3 and 6. Ten microliters of Ac-peptide substrate/Tris buffer solution was added to start the reaction, followed by a 4-h incubation at room temperature and a further 2-h incubation with trypsin solution for HDAC8 and Sirt 2. […] This experiment was performed only once.

Data set [7] has as its system parasite histone H3 acetylation. In words: Western blot of histone H3 acetylation in parasites. It is filed as cell-based, Plasmodium falciparum. Particulars: 4 h treatment of asynchronous 3D7; quisinostat/JX21108 5 and 20 nM, SAHA 500 nM. Here is the method:
Then the parasite samples were harvested and treated with 0.15% saponin to remove the RBC proteins and sonicated in 1% NP40 lysis buffer. After centrifugation at 12,000× g for 15 min, the supernatant was resuspended in a routine SDS loading buffer. Parasite proteins were separated by 10% SDS-PAGE and transferred onto PVDF membranes (Millipore). […] A2348) followed by a secondary antibody conjugated with HRP (Jackson Immuno Research Laboratories). The chemiluminescent HRP substrate Immobilon Western Kit (Millipore) was used for signal detection.
(Immunoblotting shows a protein as a band on a membrane.)

The subject of data set [8] is P. falciparum 3D7. In words: Stage-specific parasite inhibition assay. It is filed as cell-based, Plasmodium falciparum. As to conditions: 40 nM. Here is the method:
To analyze the stage-specific parasite inhibition, highly synchronized parasites were cultured in 24-well plates with a starting parasitemia of 1% at a hematocrit of 2%. After 12 h of culture with the tested compounds at a concentration of 40 nM, parasites were washed three times to remove the compounds, and parasitemia was diluted 1:40 by new RBCs into CM for another 4 days of culture. DMSO was used as a blank control. Parasitemia was counted by flow cytometry. Flow cytometry was conducted as described previously. Briefly, the parasite-infected RBCs were fixed in 4% formaldehyde/0.015% glutaraldehyde for 30 min at room temperature and incubated with 500 μL of a SYBR green staining solution (Invitrogen) (1:5000) in 1× PBS (phosphate-buffered saline, pH 7.4, without calcium and magnesium). Cells were washed three times with 1× PBS prior to flow-cytometry analysis on a MoFloAstrios EQ instrument (BECKMAN COULTER). RBCs (5 × 10^5) were measured (excitation 488 nm; emission detection FL1 513 ± 26 nm), and a value of 5 on FL1 (SYBR Green intensity) was applied as a threshold to identify (gate) the infected RBCs (iRBCs). Acquired data were processed using the FlowJo software (v.10.0.5).

Data set [9] deals with asynchronous 3D7 parasites. The data set is described as follows: Time- and dose-dependent parasite inhibition assay. It counts as cell-based, Plasmodium falciparum. The procedure: Asynchronous parasites (2% parasitemia, 4% hematocrit) were treated with the tested compounds at a concentration of 10, 30, 60, or 100 nM, respectively. At 3, 6, 12, and 24 h post treatment, parasitemia of each sample was detected by flow cytometry to investigate the time-dependent activity. Parasites from the same treatment were further washed to remove compounds, and parasitemia was diluted 1:40 by new RBCs into CM for an additional 4 days of culture. Parasitemia of each sample was detected by flow cytometry as described above to investigate the dose-dependent activity. DMSO was used as a blank control.

The mark [10] stands for this setting: read-out: T1/2 in liver microsomes.

Several values for one entry are separate records, joined by “and”; a condition that tells them apart may be missing. Identical values can stand only once. Bounds are passed on as bounds.

The term EC50 denotes the concentration needed to bring the measured effect to its halfway point. One may read the IC50 as the point on the concentration scale where inhibition reaches its midpoint. Take `Cl.Cn1cc(CN2CCC3(CCN(c4ncc(C(=O)NO)cn4)C3)C2)c2cc(C#N)ccc21` (stereo not shown) [JX21108]: the EC50 was 4 nM in the data set with P. falciparum Dd2, 2.2 ± 0.2 nM in [2], 2.6 ± 0.2 nM in data set [3] and 114 ± 26.5 nM in the data set with 3D7^HDAC1-TY1. The molecule also gave an EC50 at 72 h in data set [1] of 1190 ± 233 nM. Besides, in the data set on 293T cells, the “Selectivity index for 293T (EC50 293T/EC50 3D7)” value was ~ 331 and 334 and 331. In the data set with P. falciparum 3D7 [4], the “RSA effect on ring-stage parasites of 3D7” value is “efficiently killed the ring-stage parasites”. The CLint scaled at 1 µM in data set [5] (mouse liver microsomes, read-out: CL in liver microsomes) was 7.32 mL/min/kg; in data set [6] (read-out: CL in liver microsomes), 196 mL/min/kg. The half-life at 1 µM is 12.4 h in data set [5] (setting [10]), 12.4 h in data set [5] (read-out: half-life in mouse liver microsomes (converted)) and 0.211 h in data set [6] (setting [10]). Moreover, the IC50 on hSirt2 was above 10000 nM. Further, in data set [7], the “pan-acetylation levels of parasite histone H3” value is “greatly increased the pan-acetylation levels of parasite histone H3”. The “stage dependence of parasite killing (parasitemia at 4 dpi)” value in the data set with P. falciparum 3D7 [8] (12-h treatment) is “treatment at the schizont stage was more active in parasite killing than that at the ring and trophozoite stages”. For the same molecule, the “asexual development of parasites to the next cycle” value in the data set with P. falciparum 3D7 [8] (12-h treatment at ring, trophozoite and schizont stages) is given as “strongly block the asexual development of parasites to the next cycle”. Besides, the “parasite growth after 3 h of treatment” value in [9] (100 nM, 3 h, washed, 4 days culture) is “completely blocked parasite growth”. In data set [9] (6-h treatment, washed, 1:40 dilution, 4 days culture), the “parasitemia measured 4 days after 6-h treatment” value is given as “substantial reduction in parasitemia”. Also, the “asexual growth of 3D7 after 12- and 24-h treatments” value in data set [9] (10-100 nM, parasitemia immediately after treatment) was “significantly inhibited the asexual growth of 3D7 parasites”.

These data come from article PMC7733455, “A novel multistage antiplasmodial inhibitor targeting Plasmodium falciparum histone deacetylase 1” (Cell Discovery, 2020).
